Results as given in patent US20230330111A1, “ACTIVE AGENT COMBINATION FOR TREATMENT OF CANCER” (HELMHOLTZ ZENTRUM MÜNCHEN - DEUTSCHES FORSCHUNGSZENTRUM FÜR …, priority 2020, published 2023).
“Also recorded” adds a separate entry of the source.

How the values were obtained:
U87 cells = assay: Cell death / ratio of toxicity and viability in U87 (spheroids); format: cell-based; conditions: for cell death / toxicity (ratio of toxicity and viability): U87, NEN 1.2 μM, FCCP 2.5 μM, 2-DG 100 mM, Domp, Imi, Desi, Ami 30 μM, Clomi 20 μM; for attenuation of cell death induced by NEN drug combinations: U87 spheroids, ISRIB 1 μM or Cyclodextrin 0.75%
Experimental: (§1) HCT116, BxPC3 and U87 cell lines were maintained in Dulbecco's modified Eagle's medium (DMEM) (Gibco) supplemented with 10% fetal bovine serum (FBS; Millipore) and Penicilin/Streptomycine (Life Tehnologies), and cultured at 37° C., 5% CO2 and 95 humidity. For spheroid formation, 10000 cells were plated in ultra-low attachment plates (Fisher Scientific), centrifuged at 850 G for 10 min and incubated for 3 days until treatment, with medium change every 3 days.
(§2) To determine drug induced toxicity in spheroid cultures, the Promega CellToXGreen and RealTime-Glo™ MT Cell Viability kits were used according to the manufacturers protocols. Briefly, Toxicity and viability dyes were mixed with cell culture medium and added prior to drug treatment. Fluorescence and luminescence were measured over the course of 3 days on a Thermo Fisher Varioskan Lux plate reader.
(§3) For Caspase 3/7 activity and general cytotoxicity in 2D cell culture the Apo One Homogenous Caspase-3/7 Assay and Multitox Fluor assays were employed respectively, according to the manufacturers protocol. Cells were seeded in 96-wells one day prior to treatment and incubated 24-48 h before assaying.

HCT116 cells [1] = assay: Cell death / ratio of toxicity and viability in HCT116 (monolayer and spheroids); format: cell-based; conditions: for cell death / toxicity (ratio of toxicity and viability): HCT116, 2D or 3D spheroids, NEN 1.2 μM, FCCP 2.5 μM, 2-DG 100 mM, Domp, Imi, Desi, Ami 30 μM, Clomi 20 μM; for attenuation of cell death induced by NEN drug combinations: HCT116 monolayer or spheroids, ISRIB 1 μM or Cyclodextrin in medium
Experimental: as §1, §2, §3

BxPC3 cells = assay: Cell death / ratio of toxicity and viability in BxPC3 (monolayer); format: cell-based; conditions: for cell death / toxicity (ratio of toxicity and viability): BxPC3, NEN 1.2 μM, FCCP 2.5 μM, 2-DG 100 mM, Domp, Imi, Desi, Ami 30 μM, Clomi 20 μM
Experimental: as §1, §2, §3

HCT116 cells [2] = assay: High-throughput phenotypic screen with NEN co-treatment (FDA-approved and GPCR libraries); format: cell-based; conditions: NEN 1.2 μM, 24 h, FDA-approved drug library and GPCR library
Experimental: Plate and liquid handling was performed using a HTS platform system composed of a Sciclone G3 Liquid Handler from PerkinElmer (Waltham, MA, USA) with a Mitsubishi robotic arm (Mitsubishi Electric, RV-3511), a MultiFloTM Dispenser (Biotek Instruments, Bad Friedrichshall, Germany) as well as a CytomatTM Incubator (Thermo Fisher Scientific, Waltham, MA, USA). Cell seeding and assays were performed in black 384-well plates (Greiner bio one 384-well μCLEAR®, BLACK, 781091). The plates were coated with poly-D-lysine (Sigma-Aldrich, St. Louis, MA, USA) for 1 h at room temperature to facilitate a better cell adherence. Cells were seeded in 384-well microplates with a cell number of 12,000 cells/well. The signals of the MultiTox-Fluor assays were detected on the EnVision® Multilabel Reader (PerkinElmer, Waltham, MA, USA). The Prestwick Chemical library contains 1,280 small molecule compounds, which are 100% approved drugs (Food and Drug Administration (FDA), European Medicines Agency (EMA) and other agencies). The purity of the compounds was >90% as reported by the provider of the compounds. The GPCR compound library was purchased from MedChem Express (Cat. No.: HY-[…]). The Z' factor was calculated as described by Zhang and colleagues (Zhang, Chung et al., 1999). For screening of the FDA and GPCR small molecule libraries, HCT116 cells were washed with PBS, trypsinized, and resuspended in cell culture medium. The cell suspension (12,000 cells in 50 μl per well) was dispensed into poly-D-lysine pre-coated 384-well plates (Greiner bio one 384-well pCLEAR®, BLACK, 781091) and incubated at 37° C. with 5% CO2. 24 h after seeding, either 5 μl of NEN (negative control), NEN+Nutlin-3a (positive control), or DMSO alone (solvent control) dissolved in cell culture media were dispensed to the assay plate (NEN, final concentration: 1.2 μM; Nutlin-3a, final concentration: 25 μM). In addition, the same day cells were treated either with compound (1 mM stock solution) dissolved in 100% DMSO or DMSO alone. 0.5 μl of compounds/DMSO were transferred to 55 μl cell culture medium per well to keep the final DMSO volume concentration below 1.0%. The cells were then incubated (37° C.; 5% CO2) for 24 h prior to adding 50 μl MultiTox-Fluor Multiplex Cytotoxicity Assay reagent (Promega). Live-cell fluorescence (excitation=400 nm; emission=505 nm) and dead-cell fluorescence (excitation=485 nm; emission=520 nm) were recorded with an EnVision multilabel reader (PerkinElmer, Waltham, USA). The ratio for live/dead was calculated and normalized to the negative/vehicle control. For hit selection a threshold of lower than 3 standard deviations from the median of the negative/vehicle population was set.

ATF4, CHOP and Gadd34 = assay: qPCR of ISR genes; format: cell-based; conditions: HCT116; for ISR marker gene expression (ATF4, CHOP, Gadd34 mRNA): NEN 1.2 μM, Domp and TCAs 30 μM, Clomi 20 μM
Source text: RNA was isolated using the Qiagen […] kit following the manufacturers protocol and reverse transcribed using the Quantitect reverse transcription kit (Qiagen). cDNA was amplified using the PowerUp SYBRGreen mastermix (LifeTechnologies), the following primers and an Applied Biosystems Quantstudio 6 cycler. RNA expression data were normalized to the level of beta-actin expression.

UPP1 = UPP1 expression (immunoblot, qPCR) in HCT116; format: cell-based; conditions: ISRIB 1 μM with NEN 1.2 μM + Domperidone 30 μM
Experimental: Cells were lysed at 4° C. in 100 μl of RIPA buffer (Sigma-Aldrich) containing protease (Roche 11697498001) and phosphatase (Roche 04906837001) inhibitors, and sonicated. Cell extracts were centrifuged 14000×RPM for 5 min 4° C. and the supernatant collected to protein concentration determination with BCA protein assay (Pierce 23225). 10-20 μg of total protein were subjected to SDS-PAGE electrophoresis, and after transfer, membranes were blocked (1 h) and incubated overnight at 4° C. with primary antibodies. After secondary antibody incubation for 1 h at room temperature, signals were visualized by Chemidoc Image System (BioRad) and ImageLab software.
RNA was isolated using the Qiagen RNAesay kit following the manufacturers protocol and reverse transcribed using the Quantitect reverse transcription kit (Qiagen). cDNA was amplified using the PowerUp SYBRGreen mastermix (LifeTechnologies), the following primers and an Applied Biosystems Quantstudio 6 cycler. RNA expression data were normalized to the level of beta-actin expression.

[3] = compared with its analogue Trimipramine; cited from earlier work
[4] = tested on: glioblastoma and small-cell lung cancer (SCLC); conditions: cited from earlier work
[5] = tested on: preclinical tumor rodent models; conditions: single drug; background art; cited from earlier work
HCT116 cells [6] = assay: Caspase 3/7 activity in HCT116; format: cell-based; conditions: HCT116, 1% serum, NEN 1.2 μM, 18 h
Source text: For Caspase 3/7 activity and general cytotoxicity in 2D cell culture the Apo One Homogenous Caspase-3/7 Assay and Multitox Fluor assays were employed respectively, according to the manufacturers protocol. […]

B42 organoids = assay: Paclitaxel sensitization in B42 organoids; format: cell-based, human; conditions: triple combination with NEN and TCAs vs Paclitaxel alone
Experimental: (§4) Primary patient-derived PDAC (Pancreatic ductal adenocarcinoma) three-dimensional (3D) organoids were generated from primary resected human PDAC surgical specimen according to the “Tuveson protocol” described in (Tiriac et al., 2018) and in the methods and extended methods sections of a publication by the group of Hans Clevers (Driehuis et al., 2019). Generation and culturing of primary-dispersed human PDAC cells was performed as recently described (Biederstadt et al., 2020). Written informed consent from the patients for research purposes was obtained prior to the investigation.
as §2
(§5) To investigate the efficacy of targeting the described metabolic stress response in a more heterogeneous cancer cell population, which better reflect the tumor biology, cultures of primary tumor-derived organoids from two patients with pancreatic cancer have been used. Organoids were seeded at a density of 1000 cells per well and let grow for 7 days prior to treatment.

PDO-48 organoids = assay: Paclitaxel sensitization in PDO-48 organoids; format: cell-based, human; conditions: triple combination with NEN and TCAs vs Paclitaxel alone
Experimental: as §4, §2, §5

O=CC[C@@H](O)[C@H](O)[C@H](O)CO [2-DG, 2-deoxyglucose]
cell death / toxicity (ratio of toxicity and viability) (U87 cells): but not 2-DG alone caused significant cell death | cell death / toxicity (ratio of toxicity and viability) (HCT116 cells [1]): but not 2-DG alone caused significant cell death | cell death / toxicity (ratio of toxicity and viability) (BxPC3 cells): but not 2-DG alone caused significant cell death

CN(C)CCCN1c2ccccc2CCc2ccc(Cl)cc21 [Clomipramine]
hit in screen (cell death in NEN co-treated but not vehicle treated cells) (HCT116 cells [2]): represented with several compounds in both screens

CNCCCN1c2ccccc2CCc2ccccc21 [Desipramine]
hit in screen (cell death in NEN co-treated but not vehicle treated cells) (HCT116 cells [2]): represented with several compounds in both screens

O=c1[nH]c2ccccc2n1CCCN1CCC(n2c(=O)[nH]c3cc(Cl)ccc32)CC1 [Domperidone]
ISR marker gene expression (ATF4, CHOP, Gadd34 mRNA) (ATF4, CHOP and Gadd34): modest increase in ISR marker gene expression | hit in screen (cell death in NEN co-treated but not vehicle treated cells) (HCT116 cells [2]): scored as hit in both screens; also recorded: one of the top hits in both screens

N#CC(C#N)=NNc1ccc(OC(F)(F)F)cc1 [FCCP, Carbonyl cyanide-p-trifluoromethoxyphenylhydrazone]
cell death / toxicity (ratio of toxicity and viability) (U87 cells): did not cause significant toxicity | cell death / toxicity (ratio of toxicity and viability) (HCT116 cells [1]): did not cause significant toxicity | cell death / toxicity (ratio of toxicity and viability) (BxPC3 cells): did not cause significant toxicity

O=C(COc1ccc(Cl)cc1)NC1CCC(NC(=O)COc2ccc(Cl)cc2)CC1 (centres unmarked) [ISRIB]
attenuation of cell death induced by NEN drug combinations (U87 cells): attenuated cell death induction | attenuation of cell death induced by NEN drug combinations (HCT116 cells [1]): attenuated cell death induction | attenuation of cell death induced by NEN drug combinations (BxPC3 cells; BxPC3 monolayer, 48 h): attenuated cell death induction | effect on drug-induced CHOP, Gadd34 and ATF4 expression (ATF4, CHOP and Gadd34; ISRIB 1 μM with NEN 1.2 μM + Domperidone 30 μM): prevented the induction of CHOP and of its target gene Gadd34, but did not decrease ATF4 expression significantly | effect on drug-induced UPP1 upregulation (UPP1): prevented the drug-induced UPP1 upregulation

CN(C)CCCN1c2ccccc2CCc2ccccc21 [Imipramine]
water solubility [3]: higher water solubility | efficacy in preclinical mouse models [4]: proven efficacy against glioblastoma and small-cell lung cancer (SCLC) in preclinical mouse models

NCCO.O=C(Nc1ccc([N+](=O)[O-])cc1Cl)c1cc(Cl)ccc1O [NEN, niclosamide ethanolamine]
anti-tumor efficacy [5]: anti-tumor efficacy in a variety of preclinical tumor rodent models | cell death / toxicity (ratio of toxicity and viability) (U87 cells): did not cause significant toxicity | cell death (caspase activity) under low serum (HCT116 cells [6]): caused significant cell death | cell death / toxicity (ratio of toxicity and viability) (HCT116 cells [1]): did not cause significant toxicity | cell death / toxicity (ratio of toxicity and viability) (BxPC3 cells): did not cause significant toxicity | ISR marker gene expression (ATF4, CHOP, Gadd34 mRNA) (ATF4, CHOP and Gadd34): modest increase in ISR marker gene expression

CC(=O)O[C@H]1C(=O)[C@@]2(C)[C@H]([C@H](OC(=O)c3ccccc3)[C@]3(O)C[C@H](OC(=O)[C@H](O)[C@@H](NC(=O)c4ccccc4)c4ccccc4)C(C)=C1C3(C)C)[C@]1(OC(C)=O)CO[C@@H]1C[C@@H]2O [Paclitaxel]
increase in effectiveness in inducing organoid cell death (B42 organoids): up to 100 times | increase in effectiveness in inducing organoid cell death (PDO-48 organoids): approximately ten

CC(CN(C)C)CN1c2ccccc2CCc2ccccc21 (centres unmarked) [Trimipramine]
hit in screen (cell death in NEN co-treated but not vehicle treated cells) (HCT116 cells [2]): represented with several compounds in both screens

O=C(Nc1ccc([N+](=O)[O-])cc1Cl)c1cc(Cl)ccc1O [niclosamide]
anti-tumor efficacy [5]: anti-tumor efficacy in a variety of preclinical tumor rodent models; also recorded: only minor therapeutic efficacy

Cyclodextrin [CD]
attenuation of cell death induced by NEN drug combinations (U87 cells): partially prevented cell death induction | attenuation of cell death induced by NEN drug combinations (HCT116 cells [1]): CD concentration-dependent suppression of cell death
